According to patent US12195490B2, “STRAD-binding agents and uses thereof” (The Regents of the University of California, priority 2020, dated 2025):
Structures can show the parent of a compound that is named as a salt.

biological target: T1, LKB1 (Homo sapiens, UniProt Q15831+Q7RTN6); test: in vitro LKB1 functional activity; format: biochemical; settings: APA analogs
T1 sequence (Q15831 1-433): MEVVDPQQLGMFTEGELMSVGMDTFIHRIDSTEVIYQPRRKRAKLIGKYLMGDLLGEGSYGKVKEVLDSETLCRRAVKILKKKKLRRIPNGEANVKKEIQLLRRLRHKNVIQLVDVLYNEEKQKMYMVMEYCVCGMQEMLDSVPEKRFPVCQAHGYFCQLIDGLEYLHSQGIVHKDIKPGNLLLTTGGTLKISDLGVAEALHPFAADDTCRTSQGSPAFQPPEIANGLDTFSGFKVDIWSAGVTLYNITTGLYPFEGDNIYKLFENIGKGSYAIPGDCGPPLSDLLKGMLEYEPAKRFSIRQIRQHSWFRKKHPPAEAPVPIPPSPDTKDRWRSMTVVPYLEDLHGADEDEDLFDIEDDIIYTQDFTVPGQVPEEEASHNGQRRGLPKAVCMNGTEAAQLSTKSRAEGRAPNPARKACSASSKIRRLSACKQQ
T1 sequence (Q7RTN6 1-431): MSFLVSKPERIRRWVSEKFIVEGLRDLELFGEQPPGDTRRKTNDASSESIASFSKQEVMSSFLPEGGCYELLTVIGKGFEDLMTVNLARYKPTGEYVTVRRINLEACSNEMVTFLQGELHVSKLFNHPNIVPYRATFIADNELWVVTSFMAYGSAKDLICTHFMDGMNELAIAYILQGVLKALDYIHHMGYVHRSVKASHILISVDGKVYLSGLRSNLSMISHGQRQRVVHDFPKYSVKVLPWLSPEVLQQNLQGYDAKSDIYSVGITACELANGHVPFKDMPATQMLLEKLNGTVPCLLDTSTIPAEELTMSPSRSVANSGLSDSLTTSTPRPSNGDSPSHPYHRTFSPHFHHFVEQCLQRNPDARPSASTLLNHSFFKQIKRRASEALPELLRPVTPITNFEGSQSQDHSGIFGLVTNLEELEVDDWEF
T1 sequence (Q9Y376 1-341 partner): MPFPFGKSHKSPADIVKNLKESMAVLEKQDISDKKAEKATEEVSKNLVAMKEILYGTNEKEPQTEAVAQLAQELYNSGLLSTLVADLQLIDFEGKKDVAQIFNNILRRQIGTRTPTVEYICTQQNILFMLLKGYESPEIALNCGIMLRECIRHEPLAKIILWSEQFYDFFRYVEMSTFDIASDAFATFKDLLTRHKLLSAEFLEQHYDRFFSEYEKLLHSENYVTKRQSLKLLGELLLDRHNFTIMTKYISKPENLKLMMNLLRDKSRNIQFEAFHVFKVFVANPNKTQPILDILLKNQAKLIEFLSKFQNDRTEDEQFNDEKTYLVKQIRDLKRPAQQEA

Row | Compound | LKB1 % Act. Increase
1 | CCOP(=O)(O)CS(=O)(=O)c1ccc(NC(=O)c2nc(-c3ccc(C)cc3)cnc2N)cc1 [SU20668-0338, ethyl hydrogen (((4-(3-amino-6-(p-tolyl)pyrazine-2-carboxamido)phenyl)sulfonyl)methyl)phosphonate] | D (D=<1000%)
2 | CCOP(=O)(NS(=O)(=O)c1ccc(NC(=O)c2nc(-c3ccc(C)cc3)cnc2N)cc1)OCC [SU20668-0475, diethyl 4-(3-amino-6-p-tolylpyrazine-2-carboxamido)phenylsulfonylphosphoramidate] | B (B=399-2000%)
3 | CC(=O)NS(=O)(=O)c1ccc(NC(=O)c2nc(-c3ccc(OC(F)(F)F)cc3)cnc2N)cc1 [SU20668-0392, N-(4-(N-acetylsulfamoyl)phenyl)-3-amino-6-(4-(trifluoromethoxy)phenyl)pyrazine-2-carboxamide] | D (D=<1000%)
4 | CCP(=O)(CC)CS(=O)(=O)c1ccc(NC(=O)c2nc(-c3ccc(C)cc3)cnc2N)cc1 [SU20668-0491, 3-amino-N-(4-((diethylphosphoryl)methylsulfonyl)phenyl)-6-p-tolylpyrazine-2-carboxamide] | B (B=399-2000%)
5 | Cc1ccc(-c2cnc(N)c(C(=O)Nc3ccc(CS(N)(=O)=O)cc3)n2)cc1 [SU20668-0331, 3-amino-N-(4-(sulfamoylmethyl)phenyl)-6-p-tolylpyrazine-2-carboxamide] | C (C=199-1000%)
6 | CC(=O)NS(=O)(=O)c1ccc(NC(=O)c2nc(-c3cccc(N)c3)cnc2N)cc1 [SU20668-0350, N-(4-(N-acetylsulfamoyl)phenyl)-3-amino-6-(3-aminophenyl)pyrazine-2-carboxamide] | D (D=<1000%)
7 | CCOP(=O)(OCC)C(C)(C)S(=O)(=O)c1ccc(NC(=O)c2nc(-c3ccc(C)cc3)cnc2N)cc1 [SU20668-0486, diethyl 2-(4-(3-amino-6-p-tolylpyrazine-2-carboxamido)phenylsulfonyl)propan-2-ylphosphonate] | B (B=399-2000%)

tested on: ACHN cell line; test: drug screen of the SelleckChem kinase inhibitor library with and without 5 uM SU-329, Cell-Titer Glo after 5 days; format: cell-based; settings: not given

Row | Compound | log2fc
8 | CHIR-98014 | 3.928

same assay, conditions: kinase inhibitor at 200 nM with and without 5 uM SU329; ACHN cell line; 5 days; Cell-Titer Glo

Row | Compound | log2fc
9 | CC(C)(C)c1cc(C=C(C#N)C#N)cc(Br)c1O [AG-1024] | −0.3636
10 | N#CC1(c2ccc(NC(=O)c3cccnc3NCc3ccncc3)cc2)CCCC1 [Apatinib] | 0.257
11 | CCCS(=O)(=O)Nc1ccc(F)c(C(=O)c2c[nH]c3ncc(-c4ccc(Cl)cc4)cc23)c1F [Vemurafenib (PLX4032, RG7204), vemurafenib, reference compound] | 0.009154
12 | O=c1ccc2ccc(O)c(O)c2o1 [Daphnetin] | 0.08794
13 | [H]/N=C(/N)N/C(=N/[H])NCCc1ccccc1 [Phenformin HCl] | 0.5945
14 | CC[C@@H]1C(=O)N(C)c2cnc(Nc3ccc(C(=O)NC4CCN(C)CC4)cc3OC)nc2N1C1CCCC1 [BI 2536] | 1.415
15 | COc1cc(N2CCC(N)CC2)ccc1Nc1ncc(Cl)c(-c2c[nH]c3ccccc23)n1 [AZD3463] | −0.06328
16 | Cc1cnc(-c2cnc(NCCNc3ccc(C#N)cn3)nc2-c2ccc(Cl)cc2Cl)[nH]1.Cl [CHIR-99021 (CT99021) HCl] | 0.9577
17 | N#C/C(=C/c1ccc(O)c(O)c1)C(=O)NCc1ccccc1 [AG-490 (Tyrphostin B42), AG-490, reference compound] | −0.01509
18 | O=C(Nc1ccc(OC(F)(F)F)cc1)c1sccc1NCc1ccnc2ccccc12 [OSI-930] | −0.2273
19 | NC(=O)Nc1sc(-c2ccc(F)cc2)cc1C(N)=O [TPCA-1] | −0.08928
20 | CCn1c(N)c(C(=O)NC)c(=O)c2ccc(C#C[C@@](C)(O)COC)nc21 [SAR131675] | 0.374
21 | CC(C)c1cnn2c(NCc3ccccc3)cc(NCCCCCCN)nc12.Cl [BS-181 HCl] | 0.09476
22 | CC(C)(C)c1nc(-c2cccc(NS(=O)(=O)c3c(F)cccc3F)c2F)c(-c2ccnc(N)n2)s1 [Dabrafenib (GSK2118436), dabrafenib, reference compound] | −0.314
23 | CN(C)C/C=C/C(=O)Nc1cc2c(Nc3ccc(F)c(Cl)c3)ncnc2cc1O[C@H]1CCOC1 [Afatinib (BIBW2992), afatinib, reference compound] | 0.04313
24 | O=c1sn(-c2cccc3ccccc23)c(=O)n1Cc1ccccc1 [Tideglusib] | −0.007073
25 | COc1ccc(-c2ccc3ncc4c(c3c2)n(-c2ccc(N3CCNCC3)c(C(F)(F)F)c2)c(=O)n4C)cn1 [BGT226 (NVP-BGT226)] | −0.4638
26 | O=c1c(-c2ccc(O)cc2)coc2cc(O)cc(O)c12 [Genistein] | 0.05262
27 | Oc1ccc(Nc2nc(-c3ccc(Cl)cc3)cs2)cc1 [SKI II] | 0.06564
28 | Cn1cc(/C=C2\C(=O)Nc3cccnc32)c2ccccc21 [GW441756] | −0.09333
29 | Cn1cc(C2=C(c3ccc(Cl)cc3Cl)C(=O)NC2=O)c2ccccc21 [SB216763] | 0.4708
30 | O=C1NCCc2[nH]c(-c3ccncc3)cc21 [PHA-767491] | −0.9629

Row | Compound | log2fc
31 | Cl.O=S(=O)(c1cccc2cnccc12)N1CCCNCC1 [Fasudil (HA-1077) HCl] | 0.1457
32 | COc1cc2c(Nc3ccc(NC(=O)c4ccccc4)cc3)ncnc2cc1OCCCN1CCOCC1 [ZM 447439] | 0.52
33 | CC(C)(C)NS(=O)(=O)c1cncc(-c2cc(F)c3nc(N)nn3c2)c1 [CZC24832] | 0.2139
34 | Nc1nccc(Oc2ccc(NC(=O)c3c[nH]cc(-c4ccc(F)cc4)c3=O)cc2F)c1Cl [BMS-794833] | −0.04405
35 | O=C(O)[C@]1(Cc2cccc(Nc3nccs3)n2)CC[C@@H](Oc2cccc(Cl)c2F)CC1 [MK-5108 (VX-689)] | −0.2429
36 | Cc1c(NC(=O)OC[C@@H]2COCCN2)cn2ncnc(Nc3ccc4c(cnn4Cc4cccc(F)c4)c3)c12 [AC480 (BMS-599626)] | 0.6806
37 | CNCc1ccc(-c2cc(-c3nc(-c4ccc(S(=O)(=O)C(C)C)cc4)cnc3N)on2)cc1 [VE-822] | 0.3083
38 | O=C1NC(=O)C(c2cnc3ccccn23)=C1c1cn2c3c(cc(F)cc13)CN(C(=O)N1CCCCC1)CC2 [LY2090314] | 1.91
39 | CC[C@@H]1C(=O)N(C)c2cnc(Nc3ccc(C(=O)N[C@H]4CC[C@H](N5CCN(CC6CC6)CC5)CC4)cc3OC)nc2N1C(C)C [Volasertib (BI 6727)] | 0.6372
40 | CCn1c(-c2nonc2N)nc2c(C#CC(C)(C)O)ncc(OC[C@H]3CCCNC3)c21 [GSK690693] | −0.5999
41 | CN1CCN(c2ccc3nc(-c4c(N)c5c(F)cccc5[nH]c4=O)[nH]c3c2)CC1 [Dovitinib (TKI-258, CHIR-258)] | 0.4746
42 | COc1ccc(S(=O)(=O)N(C(C)=O)c2ccccc2/C=C/c2cc[n+]([O-])cc2)cc1 [HMN-214] | 0.2477
43 | O=C(Nc1cccc(Nc2ncc(Br)c(NCCc3cnc[nH]3)n2)c1)N1CCCC1 [BX-912] | −0.4536
44 | COc1ccc2cc(-c3nc(-c4ccc([S+](C)[O-])cc4)[nH]c3-c3ccncc3)ccc2c1 (stereo not drawn) [Tie2 kinase inhibitor] | −0.08697
45 | CO[C@H]1C[C@@H]2CC[C@@H](C)[C@@](O)(O2)C(=O)C(=O)N2CCCC[C@H]2C(=O)O[C@H]([C@H](C)C[C@@H]2CC[C@H](n3cnnn3)[C@H](OC)C2)CC(=O)[C@H](C)/C=C(\C)[C@@H](O)[C@@H](OC)C(=O)[C@H](C)C[C@H](C)/C=C/C=C/C=C/1C [Zotarolimus (ABT-578)] | −1.34
46 | CNC(=O)Nc1ccc(-c2nc(N3CC4CCC(C3)O4)c3cnn(C4CCC5(CC4)OCCO5)c3n2)cc1 [WYE-125132 (WYE-132)] | 0.04946
47 | Cn1cnc2c(F)c(Nc3ccc(Br)cc3Cl)c(C(=O)NOCCO)cc21 [Selumetinib (AZD6244), selumetinib, reference compound] | 0.357
48 | S-Ruxolitinib (INCB018424) | −0.1855
49 | Cc1c(F)cc(C(=O)NC2CC2)cc1-c1ccc(C(=O)NCC(C)(C)C)cn1 [Losmapimod (GW856553X)] | −0.5236
50 | COc1cc(Nc2c(C#N)cnc3cc(OCCCN4CCN(C)CC4)c(OC)cc23)c(Cl)cc1Cl [Bosutinib (SKI-606)] | −0.1583
51 | C[S+]([O-])c1ccc(-c2nc(-c3ccc(F)cc3)c(-c3ccncc3)[nH]2)cc1 (stereo not drawn) [SB203580] | −0.09424
